Assay results: patent US9339463B2, “Micronized opioid compositions having a specific particle size distribution” (priority 2007, dated 2016)

Tests used:
Type in all cases: physicochemical
[1] = Physical stability on storage: particle size (Dv90) by laser diffraction
[2] = Particle size by optical microscopy, number % undersize; details: mean diameter
Experimental: (§1) As a secondary analytical method, the micronized and the non-micronized oxycodone analyzed by laser diffraction with results shown in Table 1, were analyzed by optical microscopy to evaluate particle size and the results are shown in Table 2. Sample aliquots (˜50 mg for micronized and ˜225 mg for non-micronized) were dispersed in 10 ml of sunflower oil and viewed on a Nikon microscope equipped with a 10× objective. Particle size (mean diameter) was determined using Image Pro® Plus software and expressed as a number % undersize. The particle size values determined by optical microscopy as shown in Table 2 are consistent with the laser diffraction particle size data shown in Table 1.

[3] = Particle size distribution by laser diffraction (Malvern Mastersizer 2000), oxycodone base
[4] = Physical stability on storage: microscopy
Experimental: as §1
(§2) Samples of Example 2 and additional samples comprising micronized and non-micronized oxycodone useful for exemplary dosage forms are tested for their chemical stability and physical stability. Based on a comparison of stability data from micronized and non-micronized samples stored at both 25° C./60% RH and 40 C.°/75% RH, no differences are observed in the impurity profile through three months of study as shown in Tables 4 and 5 for exemplary lots. The impurities analyzed include (HOXY), 14-Hydroxycodeinone; (DHOXYN), 7,8-Dihydro-8,14-Dihydroxycodeinone; (DHOXY), 7,8-Dihydro-14-hydroxycodeine; (OXYE), Oxycodone ethylenolate; (OXYN), 1-Hydroxyoxycodone and Oxycodone N-oxide. Most of the impurities are found to be below the limit of quantitation (LOQ), except for HOXY and DHOXYN which were unchanged at 0.1%. […] The solid state stability of the micronized oxycodone is monitored for particle size, XRPD, DSC, and microscopy as shown in Table 6.

[5] = Chemical stability on storage: assay and impurities
Experimental: as §2

[6] = Physical stability on storage: DSC onset melt
Experimental: The micronized lots may also be analyzed by Differential Scanning Calorimetry (DSC). DSC is performed on a TA instrument Q100 using a heating ramp from 25-235° C. at a rate of 5° C./min. […] The sharp endotherm observed is consistent with a crystalline material and the absence of other thermal events proves that there were no polymorph transformations during melting.
as §2

[7] = Table 1 analysis, lot 2 in duplicate
[8] = additional laser diffraction analysis, Table 3

Compound: COc1ccc2c3c1O[C@H]1C(=O)CC[C@@]4(O)[C@@H](C2)N(C)CC[C@]314 [Lot 1, oxycodone]
- Particle size (Dv90) ([1]; 25° C./60% RH, 3 months): 6 μ
- Particle size (Dv90) ([1]; 40° C./75% RH, 3 months): 11 μ
- Particle size (Dv90) ([1]; Time 0): 4 μ
- % ≦ 1μ [2]: 30.5%
- % ≦ 5μ [2]: 92.7%
- % ≦ 10μ [2]: 99.5%
- Particle size (Dv10) [3, 7]: 0.5 μ
- Particle size (Dv50) [3, 7]: 1.4 μ
- Particle size (Dv90) [3, 7]: 3.0 μ
- Particle size (Dv10) [3, 8]: 0.7 μ
- Particle size (Dv50) [3, 8]: 2.1 μ
- Particle size (Dv90) [3, 8]: 5.1 μ
- Microscopy, ≦10 μ ([4]; 25° C./60% RH, 3 mo): 98.4%
- Microscopy, ≦10 μ ([4]; 40° C./75% RH, 3 mo): 98.2%
- Microscopy, ≦10 μ ([4]; Time 0): 99.5%
- 1-HydroxyOXY ([5]; 5° C./60% RH, 1 mo (Table 4)): <LOQ
- 1-HydroxyOXY ([5]; 5° C./60% RH, 3 mo (Table 4)): <LOQ
- Assay ([5]; 25° C./60% RH, 1 mo): 98.9%
- DHOXY (7,8-Dihydro-14-hydroxycodeine) ([5]; 25° C./60% RH, 1 mo): <LOQ
- DHOXYN (7,8-Dihydro-8,14-Dihydroxycodeinone) ([5]; 25° C./60% RH, 1 mo): 0.10%
- HOXY (14-Hydroxycodeinone) ([5]; 25° C./60% RH, 1 mo): 0.08%
- OXYE (Oxycodone ethylenolate) ([5]; 25° C./60% RH, 1 mo): <LOQ
- OXYN ([5]; 25° C./60% RH, 1 mo): <LOQ
- Other (impurities; Table 5: >0.05%) ([5]; 25° C./60% RH, 1 mo): <LOQ
- Total impurities ([5]; 25° C./60% RH, 1 mo): 0.18%
- Assay ([5]; 25° C./60% RH, 3 mo): 99.9%
- DHOXY (7,8-Dihydro-14-hydroxycodeine) ([5]; 25° C./60% RH, 3 mo): <LOQ
- DHOXYN (7,8-Dihydro-8,14-Dihydroxycodeinone) ([5]; 25° C./60% RH, 3 mo): 0.10%
- HOXY (14-Hydroxycodeinone) ([5]; 25° C./60% RH, 3 mo): 0.08%
- OXYE (Oxycodone ethylenolate) ([5]; 25° C./60% RH, 3 mo): <LOQ
- OXYN ([5]; 25° C./60% RH, 3 mo): <LOQ
- Other (impurities; Table 5: >0.05%) ([5]; 25° C./60% RH, 3 mo): <LOQ
- Total impurities ([5]; 25° C./60% RH, 3 mo): 0.18%
- 1-HydroxyOXY ([5]; 40° C./75% RH, 1 mo): <LOQ
- Assay ([5]; 40° C./75% RH, 1 mo): 100.0%
- DHOXY (7,8-Dihydro-14-hydroxycodeine) ([5]; 40° C./75% RH, 1 mo): <LOQ
- DHOXYN (7,8-Dihydro-8,14-Dihydroxycodeinone) ([5]; 40° C./75% RH, 1 mo): 0.10%
- HOXY (14-Hydroxycodeinone) ([5]; 40° C./75% RH, 1 mo): 0.08%
- OXYE (Oxycodone ethylenolate) ([5]; 40° C./75% RH, 1 mo): <LOQ
- OXYN ([5]; 40° C./75% RH, 1 mo): <LOQ
- Other (impurities; Table 5: >0.05%) ([5]; 40° C./75% RH, 1 mo): <LOQ
- Total impurities ([5]; 40° C./75% RH, 1 mo): 0.18%
- 1-HydroxyOXY ([5]; 40° C./75% RH, 3 mo): <LOQ
- Assay ([5]; 40° C./75% RH, 3 mo): 99.5%
- DHOXY (7,8-Dihydro-14-hydroxycodeine) ([5]; 40° C./75% RH, 3 mo): <LOQ
- DHOXYN (7,8-Dihydro-8,14-Dihydroxycodeinone) ([5]; 40° C./75% RH, 3 mo): 0.10%
- HOXY (14-Hydroxycodeinone) ([5]; 40° C./75% RH, 3 mo): 0.08%
- OXYE (Oxycodone ethylenolate) ([5]; 40° C./75% RH, 3 mo): <LOQ
- OXYN ([5]; 40° C./75% RH, 3 mo): <LOQ
- Other (impurities; Table 5: >0.05%) ([5]; 40° C./75% RH, 3 mo): <LOQ
- Total impurities ([5]; 40° C./75% RH, 3 mo): 0.18%
- 1-HydroxyOXY ([5]; Time 0): <LOQ
- Assay ([5]; Time 0): 99.3%
- DHOXY (7,8-Dihydro-14-hydroxycodeine) ([5]; Time 0): <LOQ
- DHOXYN (7,8-Dihydro-8,14-Dihydroxycodeinone) ([5]; Time 0): 0.10%
- HOXY (14-Hydroxycodeinone) ([5]; Time 0): 0.08%
- OXYE (Oxycodone ethylenolate) ([5]; Time 0): <LOQ
- OXYN ([5]; Time 0): <LOQ
- Other (impurities; Table 5: >0.05%) ([5]; Time 0): <LOQ
- Total impurities ([5]; Time 0): 0.18%
- DSC Onset Melt ([6]; 25° C./60% RH, 3 mo): 221.8 °C
- DSC Onset Melt ([6]; 40° C./75% RH, 3 mo): 221.9 °C
- DSC Onset Melt ([6]; Time 0): 222.0 °C

Compound: COc1ccc2c3c1O[C@H]1C(=O)CC[C@@]4(O)[C@@H](C2)N(C)CC[C@]314 [Lot 3, oxycodone]
- Particle size (Dv90) ([1]; 25° C./60% RH, 1 month): 9 μ
- Particle size (Dv90) ([1]; 25° C./60% RH, 3 months): 10 μ
- Particle size (Dv90) ([1]; 25° C./60% RH, 6 months): 10 μ
- Particle size (Dv90) ([1]; 25° C./60% RH, 9 months): 8 μ
- Particle size (Dv90) ([1]; 25° C./60% RH, 12 months): 8 μ
- Particle size (Dv90) ([1]; 40° C./75% RH, 1 month): 9 μ
- Particle size (Dv90) ([1]; 40° C./75% RH, 3 months): 11 μ
- Particle size (Dv90) ([1]; 40° C./75% RH, 6 months): 10 μ
- Particle size (Dv90) ([1]; Time 0): 6 μ
- Microscopy, ≦10 μ ([4]; 25° C./60% RH, 3 mo): 98.3%
- Microscopy, ≦10 μ ([4]; 40° C./75% RH, 3 mo): 94.5%
- 1-HydroxyOXY ([5]; 5° C./60% RH, 1 mo (Table 4)): <LOQ
- 1-HydroxyOXY ([5]; 5° C./60% RH, 3 mo (Table 4)): <LOQ
- Assay ([5]; 25° C./60% RH, 1 mo): 98.5%
- DHOXY (7,8-Dihydro-14-hydroxycodeine) ([5]; 25° C./60% RH, 1 mo): <LOQ
- DHOXYN (7,8-Dihydro-8,14-Dihydroxycodeinone) ([5]; 25° C./60% RH, 1 mo): 0.10%
- HOXY (14-Hydroxycodeinone) ([5]; 25° C./60% RH, 1 mo): 0.08%
- OXYE (Oxycodone ethylenolate) ([5]; 25° C./60% RH, 1 mo): <LOQ
- OXYN ([5]; 25° C./60% RH, 1 mo): <LOQ
- Other (impurities; Table 5: >0.05%) ([5]; 25° C./60% RH, 1 mo): <LOQ
- Total impurities ([5]; 25° C./60% RH, 1 mo): 0.18%
- Assay ([5]; 25° C./60% RH, 3 mo): 98.5%
- DHOXY (7,8-Dihydro-14-hydroxycodeine) ([5]; 25° C./60% RH, 3 mo): <LOQ
- DHOXYN (7,8-Dihydro-8,14-Dihydroxycodeinone) ([5]; 25° C./60% RH, 3 mo): 0.10%
- HOXY (14-Hydroxycodeinone) ([5]; 25° C./60% RH, 3 mo): 0.08%
- OXYE (Oxycodone ethylenolate) ([5]; 25° C./60% RH, 3 mo): <LOQ
- OXYN ([5]; 25° C./60% RH, 3 mo): <LOQ
- Other (impurities; Table 5: >0.05%) ([5]; 25° C./60% RH, 3 mo): <LOQ
- Total impurities ([5]; 25° C./60% RH, 3 mo): 0.18%
- 1-HydroxyOXY ([5]; 40° C./75% RH, 1 mo): <LOQ
- Assay ([5]; 40° C./75% RH, 1 mo): 100.1%
- DHOXY (7,8-Dihydro-14-hydroxycodeine) ([5]; 40° C./75% RH, 1 mo): <LOQ
- DHOXYN (7,8-Dihydro-8,14-Dihydroxycodeinone) ([5]; 40° C./75% RH, 1 mo): 0.10%
- HOXY (14-Hydroxycodeinone) ([5]; 40° C./75% RH, 1 mo): 0.08%
- OXYE (Oxycodone ethylenolate) ([5]; 40° C./75% RH, 1 mo): <LOQ
- OXYN ([5]; 40° C./75% RH, 1 mo): <LOQ
- Other (impurities; Table 5: >0.05%) ([5]; 40° C./75% RH, 1 mo): <LOQ
- Total impurities ([5]; 40° C./75% RH, 1 mo): 0.18%
- 1-HydroxyOXY ([5]; 40° C./75% RH, 3 mo): <LOQ
- Assay ([5]; 40° C./75% RH, 3 mo): 99.5%
- DHOXY (7,8-Dihydro-14-hydroxycodeine) ([5]; 40° C./75% RH, 3 mo): <LOQ
- DHOXYN (7,8-Dihydro-8,14-Dihydroxycodeinone) ([5]; 40° C./75% RH, 3 mo): 0.10%
- HOXY (14-Hydroxycodeinone) ([5]; 40° C./75% RH, 3 mo): 0.08%
- OXYE (Oxycodone ethylenolate) ([5]; 40° C./75% RH, 3 mo): <LOQ
- OXYN ([5]; 40° C./75% RH, 3 mo): <LOQ
- Other (impurities; Table 5: >0.05%) ([5]; 40° C./75% RH, 3 mo): <LOQ
- Total impurities ([5]; 40° C./75% RH, 3 mo): 0.18%
- 1-HydroxyOXY ([5]; Time 0): <LOQ
- Assay ([5]; Time 0): 100.4%
- DHOXY (7,8-Dihydro-14-hydroxycodeine) ([5]; Time 0): <LOQ
- DHOXYN (7,8-Dihydro-8,14-Dihydroxycodeinone) ([5]; Time 0): 0.11%
- HOXY (14-Hydroxycodeinone) ([5]; Time 0): 0.07%
- OXYE (Oxycodone ethylenolate) ([5]; Time 0): <LOQ
- OXYN ([5]; Time 0): <LOQ
- Other (impurities; Table 5: >0.05%) ([5]; Time 0): <LOQ
- Total impurities ([5]; Time 0): 0.18%
- DSC Onset Melt ([6]; 25° C./60% RH, 3 mo): 221.9 °C
- DSC Onset Melt ([6]; 40° C./75% RH, 3 mo): 221.9 °C
